Measured values published in patent EP1171440B1, “SUBSTITUTED-3-CYANO-[1.7],[1.5], AND [1.8]-NAPHTHYRIDINE INHIBITORS OF TYROSINE KINASES” (Wyeth Holdings Corporation, priority 1999, dated 2000).
pIC50: −log10 of the molar value. In brackets after ≈: the same amount, converted by molar mass. Several values for one entry are separate records, joined by “and”; a condition that tells them apart may be missing. Equal values may be shown once. Read-outs that look alike come from different tables or passages of the source.

What was measured:
[1] = molecular target: T1, EGF-R Kinase (recombinant enzyme) (Homo sapiens, UniProt P00533); experiment: Inhibition of Epidermal Growth Factor Receptor Kinase (EGF-R) using recombinant enzyme, RR-SRC peptide phosphorylation with 33P-ATP; type: biochemical; settings: for inhibition at 0.5 µM: 0.5 µM concentration of test compound, read-out: % Inhibition @ 0.5
T1 construct: containing the EGFR cDNA encoding amino acids 645 - 1186 preceded by Met-Ala-(His)6; made in house; host or cells: Sf9 insect cells infected with recombinant baculovirus vHcEGFR52
T1 sequence (P00533 669-1210): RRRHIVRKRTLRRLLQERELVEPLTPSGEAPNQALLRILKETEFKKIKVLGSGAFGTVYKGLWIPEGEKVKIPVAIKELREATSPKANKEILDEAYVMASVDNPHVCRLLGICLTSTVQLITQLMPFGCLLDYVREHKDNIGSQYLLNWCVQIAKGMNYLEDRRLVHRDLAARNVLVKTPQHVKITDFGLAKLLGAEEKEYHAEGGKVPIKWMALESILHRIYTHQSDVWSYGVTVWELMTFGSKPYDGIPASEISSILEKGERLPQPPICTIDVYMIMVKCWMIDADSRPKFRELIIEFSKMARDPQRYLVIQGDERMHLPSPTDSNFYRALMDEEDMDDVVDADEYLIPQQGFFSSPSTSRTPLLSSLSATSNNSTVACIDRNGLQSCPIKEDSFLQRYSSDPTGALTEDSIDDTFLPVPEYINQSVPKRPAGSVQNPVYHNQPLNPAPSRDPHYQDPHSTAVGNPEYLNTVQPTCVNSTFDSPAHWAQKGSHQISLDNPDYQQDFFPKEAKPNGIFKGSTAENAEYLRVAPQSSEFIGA
Protocol: Representative test compounds were evaluated for their ability to inhibit the phosphorylation of the tyrosine residue of a peptide substrate catalyzed by the enzyme epidermal growth factor receptor kinase. […] The enzyme used in this assay is the His-tagged cytoplasmic domain of EGFR. A recombinant baculovirus (vHcEGFR52) was constructed containing the EGFR cDNA encoding amino acids 645 - 1186 preceded by Met-Ala-(His)6 . Sf9 cells in 100 mm plates were infected at an moi of 10 pfu/cell and cells were harvested 48 h post infection. A cytoplasmic extract was prepared using 1% Triton X-100 and applied to Ni-NTA column. After washing the column with 20 mM imidazole, HcEGFR was eluted with 250 mM imidazole (in 50 mM Na2HPO4, pH 8.0, 300 mM NaCl). Fractions collected were dialyzed against 10 mM HEPES, pH 7.0, 50 mM NaCl, 10% glycerol, 1ug/mL antipain and leupeptin and 0.1 mM Pefabloc SC. The protein was frozen in dry ice/methanol and stored -70° C.
Test compounds were made into 10 mg/mL stock solutions in 100% dimethylsulfoxide (DMSO). Prior to experiment, stock solutions were diluted to 500 uM with 100% DMSO and then serially diluted to the desired concentration with HEPES buffer (30 mM HEPES pH 7.4).
For the enzyme reaction, 10 uL of each inhibitor (at various concentrations) were added to each well of a 96-well plate. To this was added 3 uL of enzyme (1:10 dilution in 10mM HEPES, pH 7.4 for final conc. of 1:120). This was allowed to sit for 10 min on ice and was followed by the addition of 5 ul peptide (80 uM final conc.), 10ul of 4X Buffer (Table A), 0.25 uL ^33P-ATP and 12 uL H2O. The reaction was allowed to run for 90 min at room temperature and was followed by spotting the entire volume on to precut P81 filter papers. The filter discs were washed 2X with 0.5% phosphoric acid and radioactivity was measured using a liquid scintillation counter. Table A
The IC50 is the concentration of test compound needed to reduce the total amount of phosphorylated substrate by 50%. The % inhibition of the test compound was determined for at least three different concentrations and the IC50 value was evaluated from the dose response curve. […] CPM(control) is in units of counts per minute and was a number expressing the amount of radiolabeled ATP (γ-^33P) incorporated into the RR-SRC peptide substrate by the enzyme after 90 minutes at room temperature in the absence of test compound as measured by liquid scintillation counting. The CPM values were corrected for the background counts produced by ATP in the absence of the enzymatic reaction. Where it was possible to determine an IC50 value, this is reported in TABLE 1 otherwise the % inhibition at 0.5 µM concentration of test compound is shown in TABLE 1.

[2] = molecular target: Mitogen Activated Protein Kinase (Mek-Erk) (Homo sapiens, UniProt P28482+Q02750); experiment: Mitogen Activated Protein Kinase (MAPK) coupled MEK 1 / ERK2 assay; type: biochemical; settings: separate entries = evaluated more than one time
Mitogen Activated Protein Kinase (Mek-Erk), sequence (P28482 2-360): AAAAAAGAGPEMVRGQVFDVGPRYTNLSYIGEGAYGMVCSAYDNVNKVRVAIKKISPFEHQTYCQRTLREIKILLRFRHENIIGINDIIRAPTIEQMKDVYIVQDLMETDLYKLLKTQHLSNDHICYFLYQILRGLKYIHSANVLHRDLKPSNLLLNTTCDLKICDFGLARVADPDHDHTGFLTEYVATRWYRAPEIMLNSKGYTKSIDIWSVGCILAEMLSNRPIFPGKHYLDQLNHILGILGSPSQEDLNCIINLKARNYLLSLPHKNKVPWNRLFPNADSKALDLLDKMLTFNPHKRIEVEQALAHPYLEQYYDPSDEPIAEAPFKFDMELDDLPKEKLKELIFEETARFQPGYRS
Mitogen Activated Protein Kinase (Mek-Erk), sequence (Q02750 whole entry): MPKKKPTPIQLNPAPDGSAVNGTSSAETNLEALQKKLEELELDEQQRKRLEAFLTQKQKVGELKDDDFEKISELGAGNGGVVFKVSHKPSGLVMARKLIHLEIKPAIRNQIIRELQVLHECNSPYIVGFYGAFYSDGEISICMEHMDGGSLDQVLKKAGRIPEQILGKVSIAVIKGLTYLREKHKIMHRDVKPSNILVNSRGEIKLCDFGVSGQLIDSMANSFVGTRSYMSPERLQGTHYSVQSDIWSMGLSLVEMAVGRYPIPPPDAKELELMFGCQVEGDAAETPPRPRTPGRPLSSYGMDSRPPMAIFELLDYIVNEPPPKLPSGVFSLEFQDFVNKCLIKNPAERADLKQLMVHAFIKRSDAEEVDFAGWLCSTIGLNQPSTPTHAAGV
Protocol: To evaluate inhibitors of the MAP (mitogen activated protein) kinase a two component coupled standard pharmacological test procedure, which measures phosphorylation of a serine/threonine residue in an appropriate sequence in the substrate in the presence and absence of a putative inhibitor, was used. Recombinant human MEK 1 (MAPKK) was first used to activate recombinant human ERK2 (MAPK) and the activated MAPK (ERK) was incubated with substrate (MBP peptide or MYC peptide) in the presence of ATP, Mg^+2 and radiolabeled ^33P ATP. The phosphorylated peptide was captured on a P 81 phosphocellulose filter (paper filter or embedded in microtiter plate) washed and counted by scintillation methods.
The peptide substrates used in the assay are MBP, peptide substrate ([…]), or synthetic Myc substrate, ([…]•5 TFA. The recombinant enzymes used were prepared as GST fusion proteins of human ERK 2 and human MEK 1. Inhibitor samples were prepared as 10X stocks in 10% DMSO and an appropriate aliquot was used to deliver either 10 ug/ml for a single point screening dose or 100, 10, 1, and 0.1 uM final concentration for a dose response curve. Final DMSO concentrations were less than or equal to 1%.
The reaction was run as follows in 50 mM Tris kinase buffer, pH 7.4 in a reaction volume of 50 ul. The appropriate volume of kinase buffer and inhibitor sample was added to the tube. Appropriate dilution of enzyme was delivered to give 2-5 ug recombinant MAPK (Erk ) per tube. The inhibitor was incubated with MAPK (Erk) for 30 min at 0 deg. C. Recombinant Mek (MAPKK) ( 0.5-2.5 ug) or fully activated Mek (0.05-0.1 units) was added to activate the Erk and incubated for 30 min at 30° C. Then substrate and gamma ^33P ATP was were added to give a final concentration of 0.5- 1 mM MBPP or 250-500 uM Myc; 0.2-0.5 uCi gamma ^33P ATP/tube; 50 µM ATP final concentration. Samples were incubated at 30°C for 30 minutes and the reaction was stopped by adding 25 µl of ice cold 10 %TCA. After samples were chilled on ice for 30 min, 20 µl of sample was transferred onto P 81 phosphocellulose filter paper or appropriate MTP with embedded P 81 filter. Filter papers or MTP were washed 2 times with a large volume of 1% acetic acid, then 2 times with water. The filters or MTP were briefly air dried before addition of scintillant and samples were counted in the appropriate scintillation counter set up for reading ^33P isotope. Samples included a positive control (activated enzyme plus substrate); a no enzyme control; a no substrate control; samples with different concentrations of putative inhibitor; and samples with reference inhibitors (other active compounds or non-specific inhibitors such as staurosporine or K252 B).
The raw data was captured as cpm. Sample replicates were averaged and corrected for background count. Mean cpm data was tabulated by group and % inhibition by a test compound was calculated as (corrected cpm control- corrected. cpm sample/control) X 100 = % inhibition. If several concentrations of inhibitor were tested, IC50 values (the concentration which gives 50% inhibition) were determined graphically from the dose response curve for % inhibition or by an appropriate computer program. The results obtained for representative compounds of this invention are listed in TABLE 3 where there may be separate entries for the same compound; this is an indication that the compound was evaluated more than one time.

SW620 = experiment: Inhibition of Cancer Cell Growth as Measured by Cell Number (Sulforhodamine B); type: cell-based, Human
Protocol: (§1) After 48 hours exposure to test compounds, cells were fixed with trichloroacetic acid, and stained with Sulforhodamine B. After washing with trichloroacetic acid, bound dye was solubilized in 10 mM Tris base and optical density was determined using a plate reader. Under conditions of the assay the optical density is proportional to the number of cells in the well. […] The test procedure is described in details by Philip Skehan et. al, J.Natl. Canc. […] The Her2Neu cell line is a 3T3 line that has bbeen transfected with Her2 receptor kinase.

A431 = experiment: as above; type: cell-based, Human; settings: 48 hours exposure
Protocol: as §1

A2780DDP = experiment: as above; type: cell-based, Human; settings: 48 hours exposure
Protocol: as §1

A2780S = experiment: as above; type: cell-based, Human; settings: 48 hours exposure
Protocol: as §1

MDA435 = experiment: as above; type: cell-based, Human; settings: 48 hours exposure
Protocol: as §1

SKBR3 = experiment: as above; type: cell-based, Human
Protocol: as §1

[3] = recombinant His-tagged cytoplasmic domain of EGFR, RR-SRC peptide, 90 min at room temperature, read-out: IC50
[4] = Homo sapiens, SW-620, 48 hours exposure, read-out: IC50
[5] = Homo sapiens, A-431, 48 h, read-out: IC50
[6] = Homo sapiens, 48 h, read-out: IC50
[7] = Homo sapiens, MDA435, 48 h, read-out: IC50
[8] = Homo sapiens, SK-BR-3, 48 hours exposure, read-out: IC50

`N#Cc1cnc2ncc(N)cc2c1Nc1cccc(Br)c1` [Example 22, 6-Amino-4-(3-bromo-phenylamino)-[1.8]naphthyridine-3-carbonitrile] gave a pIC50 [1, 3] of 7.30 and a pIC50 [2] of less than 4.00.

In the case of `CCOc1ccc2ncc(C#N)c(Nc3cccc(Br)c3)c2n1` [Example 35, 4-(3-Bromo-phenylamino)-6-ethoxy-[1.5]naphthyridine-3-carbonitrile], the inhibition at 0.5 µM [1] was 9%, the pIC50 [1, 3] was less than 5.00 and the pIC50 [2] was less than 4.00.

`N#Cc1cnc2ncc(NC(=O)CCl)cc2c1Nc1cccc(Br)c1` [Example 28, N-[5-(3-Bromo-phenylamino)-6-cyano-[1.8]naphthyridin-3-yl]-2-chloro-acetamide] was tested, and the pIC50 ([2]; read-out: IC50) was 5.22.

`CC#CC(=O)Nc1cnc2ncc(C#N)c(Nc3ccc(F)c(Cl)c3)c2c1` [Example 27, But-2-ynoic acid [5-(3-chloro-4-fluoro-phenylamino)-6-cyano-[1.8]-naphthyridin-3-yl]-amide] was tested, and the pIC50 [2] was less than 4.00.

Work on `CN(C)CC=CC(=O)Nc1cnc2ncc(C#N)c(Nc3cccc(Br)c3)c2c1` [Example 30, 4-Dimethylamino-but-2-enoic acid [5-(3-bromo-phenylamino)-6-cyano-[1.8]naphthyridin-3-yl]-amide] yielded an IC50 (SW620; [4]) greater than 5 µg/mL, an IC50 (A431; [5]) of 2.76 µg/mL (≈ 6.12 µM) and an IC50 (A2780DDP; [6]) of 4 µg/mL (≈ 8.87 µM). For the same compound, the IC50 (A2780S; [6]) was 1.77 µg/mL (≈ 3.92 µM), the IC50 (MDA435; [7]) was greater than 5 µg/mL and the IC50 (SKBR3; [8]) was 4.83 µg/mL (≈ 10.7 µM). It also gave an inhibition at 0.5 µM [1] of 47%, a pIC50 [1, 3] of 6.10 and a pIC50 ([2]; read-out: IC50) of 4.30.

`N#Cc1cnc2ncc([N+](=O)[O-])cc2c1Nc1ccc(F)c(Cl)c1` [Example 25, 4-(3-Chloro-4-fluoro-phenylamino)-6-nitro-[1.8]naphthyridine-3-carbonitrile] was tested, and the pIC50 [1, 3] was 7.00.

Work on `C[Si](C)(C)C#Cc1cc2c(Nc3cccc(Br)c3)c(C#N)cnc2cn1` [Example 85, 4-(3-Bromo-phenylamino)-6-trimethylsilanylethynyl-[1.7]naphthyridine-3-carbonitrile] yielded an IC50 (SW620; 48 hours exposure) of 4.724 µg/mL (≈ 11.2 µM), an IC50 (A431) of 3.056 µg/mL (≈ 7.25 µM) and an IC50 (A2780DDP) of 2.969 µg/mL (≈ 7.05 µM). For the same compound, the IC50 (A2780S) was 2.344 µg/mL (≈ 5.56 µM), the IC50 (MDA435) was 4.203 µg/mL (≈ 9.97 µM) and the IC50 (SKBR3; 48 hours exposure) was 3.591 µg/mL (≈ 8.52 µM).

`C=CC(=O)Nc1cnc2ncc(C#N)c(Nc3cccc(Br)c3)c2c1` [Example 23, N-[5-(3-Bromo-phenylamino)-6-cyano-[1.8]naphthyridin-3-yl]-acrylamide] was tested, and the pIC50 [1] was 8.15 and the pIC50 ([2]; read-out: IC50) was < 4.00 and 4.00.

For `N#Cc1cnc2ncc(N)cc2c1Nc1ccc(F)c(Cl)c1` [Example 26, 6-Amino-4-(3-chloro-4-fluoro-phenylamino)-[1.8]naphthyridine-3-carbonitrile], the pIC50 ([2]; read-out: IC50) was less than 4.00.

In the case of `N#Cc1cnc2cccnc2c1Nc1cccc(Br)c1` [Example 37, 4-(3-Bromophenylamino)-[1.5]naphthyridine-3-carbonitrile], the pIC50 ([2]; read-out: IC50) was less than 4.00.

Compound `N#Cc1cnc2ccc(N)nc2c1Nc1cccc(Br)c1` [Example 49, 6-Amino-4-(3-bromo-phenylamino)-[1.5]naphthyridine-3-carbonitrile] has a pIC50 [2] of 4.60.

Work on `COc1ccc(CNc2cc3c(Nc4cccc(Br)c4)c(C#N)cnc3cn2)cc1` [Example 58, 4-(3-Bromo-phenylamino)-6-(4-methoxy-benzylamino)-[1.7]naphthyridine-3-carbonitrile] yielded an IC50 (SW620; [4]) of 4.1 µg/mL (≈ 8.91 µM), an IC50 (A431; [5]) of 0.4 µg/mL (≈ 0.869 µM) and an IC50 (A2780DDP; [6]) of 1.8 µg/mL (≈ 3.91 µM). For the same compound, the IC50 (A2780S; [6]) was 1 µg/mL (≈ 2.17 µM), the IC50 (MDA435; [7]) was 2.4 µg/mL (≈ 5.21 µM) and the IC50 (SKBR3; [8]) was 2.9 µg/mL (≈ 6.3 µM). The pIC50 [1, 3] was less than 7.00 and the pIC50 [2] was less than 4.00.

With `N#Cc1cnc2cnc(N)cc2c1Nc1cccc(Br)c1` [Example 59, 6-Amino-4-(3-bromo-phenylamino)-[1.7]naphthyridine-3-carbonitrile] the IC50 (SW620; [4]) was greater than 5 µg/mL, the IC50 (A431; [5]) was 0.4 µg/mL (≈ 1.18 µM) and the IC50 (A2780DDP; [6]) was 3.1 µg/mL (≈ 9.11 µM). For the same compound, the IC50 (A2780S; [6]) was 3.5 µg/mL (≈ 10.3 µM), the IC50 (MDA435; [7]) was greater than 5 µg/mL and the IC50 (SKBR3; [8]) was 4.1 µg/mL (≈ 12.1 µM). For the same compound, the pIC50 [1, 3] was 9.15.

`N#Cc1cnc2ncc([N+](=O)[O-])cc2c1Nc1cccc(Br)c1` [Example 21, 4-(3-Bromo-phenylamino)-6-nitro-[1.8]naphthyridine-3-carbonitrile] gave a pIC50 [1, 3] of 8.52.

Compound `N#Cc1cnc2cnc(F)cc2c1Nc1cccc(Br)c1` [Example 57, 4-(3-Bromo-phenylamino)-6-fluoro-[1.7]naphthyridine-3-carbonitrile] has an IC50 (SW620; [4]) greater than 5 µg/mL, an IC50 (A431; [5]) of 3.92 µg/mL (≈ 11.4 µM) and an IC50 (A2780DDP; [6]) greater than 5 µg/mL. The IC50 (A2780S; [6]) was 3.33 µg/mL (≈ 9.7 µM), the IC50 (MDA435; [7]) was greater than 5 µg/mL and the IC50 (SKBR3; [8]) was greater than 5 µg/mL. It also gave a pIC50 [1, 3] of 8.10 and a pIC50 [2] of less than 4.00.
